The source of these data is PubChem BioAssay AID330 (DTP/NCI, 2004).

In this test the test system is P388 leukemia ip, CD2F1 mice, survival T/C. Description: NCI In Vivo Anticancer Drug Screen. Data for tumor model P388 Leukemia (intraperitoneal) in CD2F1 (CDF1) mice. Conditions: endpoint: median survival time, higher = longer survival. In outline:
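Mice carrying the transplanted tumor received test compound or vehicle. Survival was recorded in each group, and the value is the treated-group measurement divided by that of the vehicle-treated control group.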

Where [1] appears, read: dose: 25.0 mg/kg/injection, schedule: Q01DX009 (ip), vehicle: Klucel (hydroxypropylcellulose) (HPC).
The mark [2] stands for this setting: dose: 50.0 mg/kg/injection, schedule: Q01DX009 (ip), vehicle: Klucel (hydroxypropylcellulose) (HPC).
Setting [3] is: dose: 50.0 mg/kg/injection, schedule: Q01DX005 (ip), vehicle: saline with Tween-80.
Where [4] appears, read: dose: 100.0 mg/kg/injection, schedule: Q01DX005 (ip), vehicle: saline with Tween-80.
[5] abbreviates: dose: 100.0 mg/kg/injection, schedule: Q01DX009 (ip), vehicle: Klucel (hydroxypropylcellulose) (HPC).
[6] abbreviates: dose: 200.0 mg/kg/injection, schedule: Q01DX009 (ip), vehicle: Klucel (hydroxypropylcellulose) (HPC).
Where [7] appears, read: dose: 60.0 mg/kg/injection, schedule: Q01DX005 (ip), vehicle: saline with Tween-80.
Where [8] appears, read: dose: 120.0 mg/kg/injection, schedule: Q01DX005 (ip), vehicle: saline with Tween-80.
The mark [9] stands for this setting: dose: 240.0 mg/kg/injection, schedule: Q01DX005 (ip), vehicle: saline with Tween-80.

Values joined by “and” are separate entries in the source; they are usually repeats but may differ in a detail not shown here. Identical values can stand only once. Toxic doses and inconclusive results are not listed.

In the case of `Cc1ccnc(NN=O)c1`, the T/C reads like this: (dose: 1.5 mg/kg/injection, schedule: Q01DX009 (ip), vehicle: water) 109 % of control; (dose: 1.56 mg/kg/injection, schedule: Q01DX009 (ip), vehicle: water) 100 % of control; (dose: 3.0 mg/kg/injection, schedule: Q01DX009 (ip), vehicle: water) 109 % of control; (dose: 3.12 mg/kg/injection, schedule: Q01DX009 (ip), vehicle: water) 117 % of control; (dose: 6.25 mg/kg/injection, schedule: Q01DX009 (ip), vehicle: water) 159 % of control; (dose: 12.5 mg/kg/injection, schedule: Q01DX009 (ip), vehicle: water) 87 % of control.
For the molecule `CNC(=O)OCc1c(COC(=O)NC)c(-c2ccc(Cl)cc2)n2c1CCC2`, the T/C is 150 % of control (dose: 6.25 mg/kg/injection, schedule: Q01DX009 (ip), vehicle: Klucel (hydroxypropylcellulose) (HPC)); 94 % of control (dose: 12.5 mg/kg/injection, schedule: Q01DX009 (ip), vehicle: Klucel (hydroxypropylcellulose) (HPC)); 88 % of control under setting [1]; 104 % of control under setting [2].
On to `CC(=O)C(c1ccccc1)[N+](C)(C)C` (centres undefined), for which the T/C (dose: 25.0 mg/kg/injection, schedule: Q04DX003 (ip), vehicle: other) was 100 % of control; the T/C (dose: 50.0 mg/kg/injection, schedule: Q04DX003 (ip), vehicle: other) was 100 % of control; the T/C (dose: 100.0 mg/kg/injection, schedule: Q04DX003 (ip), vehicle: other) was 98 % of control.
Take `CCC1=CC2CN3CCc4c([nH]c5ccccc45)C(C(=O)OC)(C2)C13` (centres undefined): the T/C runs as follows: under setting [3], 105 % of control; under setting [4], 108 % of control.
Turning to `O=C(O)c1ccc2c(c1Sc1ccc(Cl)cc1)C(=O)c1ccccc1C2=O`, the T/C (dose: 60.0 mg/kg/injection, schedule: Q01DX005 (ip), vehicle: Klucel (hydroxypropylcellulose) (HPC)) was 100 % of control; the T/C (dose: 120.0 mg/kg/injection, schedule: Q01DX005 (ip), vehicle: Klucel (hydroxypropylcellulose) (HPC)) was 90 % of control; the T/C (dose: 240.0 mg/kg/injection, schedule: Q01DX005 (ip), vehicle: Klucel (hydroxypropylcellulose) (HPC)) is 99 % of control.
Turning to `CC[C@@H]1C[C@H]2CN(CCc3c([nH]c4ccccc34)[C@@](C(=O)OC)(c3cc4c(cc3OC)N(C)[C@H]3[C@@](O)(C(=O)OC)[C@H](OC(C)=O)[C@]5(CC)CCCN6CC[C@]43[C@@H]65)C2)C1`, the T/C (dose: 0.06 mg/kg/injection, schedule: Q01DX009 (ip), vehicle: water) was 104 % of control; the T/C (dose: 0.13 mg/kg/injection, schedule: Q01DX009 (ip), vehicle: water) is 104 % of control; the T/C (dose: 0.25 mg/kg/injection, schedule: Q01DX009 (ip), vehicle: water) was 105 % of control and 110 % of control; the T/C (dose: 0.5 mg/kg/injection, schedule: Q01DX009 (ip), vehicle: water) was 108 % of control and 118 % of control; the T/C (dose: 2.0 mg/kg/injection, schedule: Q01DX009 (ip), vehicle: saline with Tween-80) is 150 % of control; the T/C (dose: 4.0 mg/kg/injection, schedule: Q01DX009 (ip), vehicle: saline with Tween-80) is 159 % of control.
Turning to `Cn1c(=O)c2c(ncn2CCNC(c2ccccc2)c2cccc(Cl)c2)n(C)c1=O` (centres undefined), the T/C (dose: 6.25 mg/kg/injection, schedule: Q01DX005 (ip), vehicle: alkali diluted with saline) is 101 % of control; the T/C (dose: 12.5 mg/kg/injection, schedule: Q01DX005 (ip), vehicle: alkali diluted with saline) was 94 % of control; the T/C (dose: 25.0 mg/kg/injection, schedule: Q01DX005 (ip), vehicle: alkali diluted with saline) was 97 % of control.
With `COc1ccc2nc3cc(Cl)ccc3c(Nc3ccc(O)c(CN(CCCl)CCCl)c3)c2c1`, the T/C runs as follows: (dose: 0.06 mg/kg/injection, schedule: Q01DX009 (ip), vehicle: saline with Tween-80) 98 % of control; (dose: 0.09 mg/kg/injection, schedule: Q01DX009 (ip), vehicle: saline with Tween-80) 89 % of control; (dose: 0.44 mg/kg/injection, schedule: Q01DX009 (ip), vehicle: saline) 150 % of control; (dose: 0.6 mg/kg/injection, schedule: Q01DX009 (ip), vehicle: saline with Tween-80) 154 % of control; (dose: 0.66 mg/kg/injection, schedule: Q01DX009 (ip), vehicle: saline) 160 % of control; (dose: 1.0 mg/kg/injection, schedule: Q01DX009 (ip), vehicle: saline) 155 % of control. Moreover, for the setting “dose: 1.5 mg/kg/injection, schedule: Q01DX009 (ip), vehicle: saline”, the T/C is 175 % of control.
Take `[Cl][Pd][Cl].[NH-]C(C(=O)O)c1ccccc1.[NH-]C(C(=O)O)c1ccccc1` (centres undefined): the T/C runs as follows: (dose: 100.0 mg/kg/injection, schedule: Q04DX003 (ip), vehicle: saline) 103 % of control; (dose: 200.0 mg/kg/injection, schedule: Q04DX003 (ip), vehicle: saline) 97 % of control; (dose: 400.0 mg/kg/injection, schedule: Q04DX003 (ip), vehicle: saline) 109 % of control.
`CCOc1c(N=Nc2cccc(Cl)c2)c(-c2ccccc2)nn1C(N)=S`: the T/C runs as follows: under setting [3], 111 % of control; under setting [4], 101 % of control; (dose: 200.0 mg/kg/injection, schedule: Q01DX005 (ip), vehicle: saline with Tween-80) 96 % of control.
Turning to `Cc1ccc(N2OC3(CCCCC3)n3c(=O)c4ccccc4c(=O)n3C2c2ccccc2)cc1` (centres undefined), the T/C under setting [2] is 105 % of control, the T/C under setting [5] was 106 % of control and the T/C under setting [6] is 99 % of control.
As to `Nc1ccc(O)cc1O`, the T/C (dose: 1.56 mg/kg/injection, schedule: Q01DX009 (ip), vehicle: saline) is 98 % of control; the T/C (dose: 3.12 mg/kg/injection, schedule: Q01DX009 (ip), vehicle: saline) was 109 % of control; the T/C (dose: 6.25 mg/kg/injection, schedule: Q01DX009 (ip), vehicle: saline) was 106 % of control; the T/C (dose: 12.5 mg/kg/injection, schedule: Q01DX009 (ip), vehicle: saline) was 118 % of control and 119 % of control.
For the molecule `COCCOCCOCCOCCOC(=O)CCn1cc(F)c(=O)[nH]c1=O`, the T/C is 99 % of control (dose: 45.0 mg/kg/injection, schedule: Q04DX002 (ip), vehicle: saline); 106 % of control (dose: 90.0 mg/kg/injection, schedule: Q04DX002 (ip), vehicle: saline); 101 % of control (dose: 180.0 mg/kg/injection, schedule: Q04DX002 (ip), vehicle: saline); 108 % of control (dose: 360.0 mg/kg/injection, schedule: Q04DX002 (ip), vehicle: saline).
Consider `CC(=O)OCC#CCN1CCCCC1C` (centres undefined), for which the T/C (dose: 50.0 mg/kg/injection, schedule: Q01DX005 (ip), vehicle: saline) was 111 % of control; the T/C (dose: 100.0 mg/kg/injection, schedule: Q01DX005 (ip), vehicle: saline) is 101 % of control; the T/C (dose: 200.0 mg/kg/injection, schedule: Q01DX005 (ip), vehicle: saline) is 103 % of control.
On to `O=C1NC(O)c2cc(Cl)ccc2O1` (centres undefined), for which the T/C was 96 % of control (dose: 50.0 mg/kg/injection, schedule: Q01DX005 (ip), vehicle: Klucel (hydroxypropylcellulose) (HPC)); 97 % of control (dose: 100.0 mg/kg/injection, schedule: Q01DX005 (ip), vehicle: Klucel (hydroxypropylcellulose) (HPC)); 96 % of control (dose: 200.0 mg/kg/injection, schedule: Q01DX005 (ip), vehicle: Klucel (hydroxypropylcellulose) (HPC)).
Regarding `O=C1CS(=O)(=O)C(c2cccc(F)c2)N1N1C(=O)CS(=O)(=O)C1c1cccc(F)c1` (centres undefined), the T/C reads like this: under setting [7], 92 % of control; under setting [8], 95 % of control; under setting [9], 94 % of control.
As for `CC(=O)NCCSC(NC(=O)c1ccccc1)C(=O)O` (centres undefined), the T/C is, setting by setting: under setting [2], 90 % of control; under setting [5], 101 % of control; under setting [6], 98 % of control.
`Cc1ccc(N2C(=O)C3CSCN3C2=O)cc1` (centres undefined): the T/C under setting [7] was 101 % of control, the T/C under setting [8] is 97 % of control and the T/C under setting [9] is 92 % of control.
On to `O=C1CSC(=S)N1c1ccc(Cl)cc1`, for which the T/C is, setting by setting: under setting [1], 96 % of control; under setting [2], 96 % of control; under setting [5], 113 % of control.
